In patent US12139488B2, “Pyrido[3,2-d]pyrimidine compounds uses thereof for treating a proliferative disease” (Universite de Montreal, priority 2021, dated 2024):

Test system: pERK in HCT-116 cells (KRAS G13D)
Assay: Phospho-ERK inhibition (AlphaLISA SureFire Ultra p-ERK 1/2), HCT116
Assay type: cell-based, human
Experimental: All cancer cell lines (A375, A101D, A2058, RKO, HT29 SK-MEL 30, IPC298, HepG2, HCT-116, Lovo, SWV620, SW480, NCI-H358, NCI-H2122, Calu-6, NCIH2087, NCIH1755, NCIH1666 and Mewo) were obtained from ATCC and cultured in RPMI-1640 medium (Gibco) supplemented with 5% heat inactivated fetal bovine serum (FBS, Wisent) at 37° C. under 5% CO2. Cells were maintained in T175 flasks (Greiner). They were passaged by removing the culture medium, washing once in 10 mL of room temperature Phosphate Buffered Saline (PBS; Wisent) and incubating at 37° C. with 2 mL of 0.05% Trypsin (Thermo-Fisher). Trypsin was then inactivated by adding complete growth medium and the cells were then replated in a T175 culture dish at the appropriate dilution. All cell lines were routinely tested for mycoplasma contamination. Tissue type and mutational status of each cell line can be found in Table B.
AlphaLISA® SureFire® Ultra™ p-ERK 1/2 (Thr202/Tyr204) analysis was conducted on cells plated in 100 μL of complete RPMI-1640 growth medium in 96-well flat-bottomed transparent dishes (Costar) at a density indicated in Table C. Cells were maintained overnight at 37° C. under 5% CO2 before treatment with compounds' dilution series for one hour. The cell density in cells/cm^2 corresponds to cell number divided by the area of one well of a 96-well plate ([…]).
In a dilution series 100 μL/well of test substance dilution prepared in complete RPMI-1640 growth media was added to the cells. The dilution series is selected so that ten concentrations cover a range from 10 μM to 0.33 nM. If necessary the initial concentration of 10 μM is increased to 100 μM or lowered to 1 μM (as in the case of A375 and H1666 cells, which are generally more sensitive to the compounds) and further dilution is carried out accordingly. The final concentration of DMSO in the assay is set at 0.5%.
After treatment, media was removed and cells were lysed in 50 μL of 1× AlphaScreen Ultra Lysis Buffer (Perkin Elmer). The AlphaLISA® SureFire® Ultra™ p-ERK 1/2 (Thr202/Tyr2O4) (PerkinElmer) reactions were performed with 5 μL of cell lysate according to the manufacturer's specifications in 384-well proxyplates (Perkin Elmer) followed by overnight incubation of the reactions at room temperature in a humidified chamber. After completion of the reactions, the signals were recorded on an EnVision plate reader (Perkin Elmer) using built in AlphaLISA® settings.
The effect of each compound dilution on the pERK signal was expressed in % inhibition and calculated as follows. An internal 100% inhibition control ([…] trametinib, cat #HY-10999; MedChem Express; CAS #871700-17-3) was included in each plate and used as a measure of pERK background. First, the value obtained for trametinib was subtracted from each data point. The average of DMSO (vehicle) controls (set as 0% inhibition) was established and used to calculate % inhibition: % inhibition=100*(1-((pERK signalcompound)/(pERK signalDMSO)))
The ability of each compound to inhibit pERK signal was expressed as an IC50 value obtained by plotting the inhibition values for each data point of a dilution series and fitting the obtained curves using a log(agonist) versus response-variable slope (four parameters) function using GraphPadPrism (V7.0) or Dotmatics Screening Ultra platform.
When present, paradoxical pERK induction is inferred from the negative % inhibition values observed in the pERK IC50 curves of a compound.

[1] = HCT116 cells, class symbol before the bracket

| IC50 (HCT116 cells, class symbol) [nM] | SMILES | also measured |
| --- | --- | --- |
| 1000 to 10000 | Cc1cc([N+](=O)[O-])ccc1S(=O)(=O)Nc1ccc(F)c(Nc2ncnc3ccc(-n4cnc5c(N)cccc54)nc23)c1F [Ex 368] | – |
| < 500 | CN(CCc1ccccn1)C(=O)c1nn(-c2ccc3ncnc(Nc4c(F)ccc(NS(=O)(=O)c5cccc(Cl)c5Cl)c4F)c3n2)c2ccccc12 [Ex 370] | – |
| 1000 to 10000 | Cc1c(F)cccc1S(=O)(=O)Nc1ccc(F)c(Nc2ncnc3ccc(-n4cnc(CO)c4)nc23)c1F [Ex 379] | – |
| < 500 | CS(=O)(=O)c1cn(-c2ccc3ncnc(Nc4c(F)ccc(NS(=O)(=O)c5cccc(Cl)c5Cl)c4F)c3n2)c2ccccc12 [Ex 381] | – |
| < 500 | Cc1c(F)cccc1S(=O)(=O)Nc1ccc(F)c(Nc2ncnc3ccc(-n4cc(S(=O)(=O)N5CCC(N(C)C)CC5)c5ccccc54)nc23)c1F [Ex 395] | – |
| < 500 | CCN1CCN(S(=O)(=O)c2cn(-c3ccc4ncnc(Nc5c(F)ccc(NS(=O)(=O)c6cccc(F)c6C)c5F)c4n3)c3ccccc23)CC1 [Ex 396] | – |
| < 500 | Cc1c(F)cccc1S(=O)(=O)Nc1ccc(F)c(Nc2ncnc3ccc(-n4cc(S(=O)(=O)N5CCN(CCO)CC5)c5ccccc54)nc23)c1F [Ex 397] | – |
| < 500 | COc1cccc2c1ncn2-c1ccc2ncnc(Nc3c(F)ccc(NS(=O)(=O)c4cccc(Cl)c4Cl)c3F)c2n1 [Ex 449] | – |
| < 500 | CC(C)(O)CCNS(=O)(=O)c1cn(-c2ccc3ncnc(Nc4c(F)ccc(NS(=O)(=O)c5cccc(Cl)c5Cl)c4F)c3n2)c2ccccc12 [Ex 453] | – |
| < 500 | O=S(=O)(Nc1ccc(F)c(Nc2ncnc3ccc(-n4cnc5c(Cl)cccc54)nc23)c1F)c1cccc(Cl)c1Cl [Ex 462] | – |
| 1000 to 10000 | CC(=O)c1cn(-c2ccc3ncnc(Nc4c(F)ccc(NS(=O)(=O)c5cccc(Cl)c5Cl)c4F)c3n2)c2ccccc12 [Ex 464] | – |
| 1000 to 10000 | CCC(=O)c1cn(-c2ccc3ncnc(Nc4c(F)ccc(NS(=O)(=O)c5cccc(Cl)c5Cl)c4F)c3n2)c2ccccc12 [Ex 471] | – |
| 1000 to 10000 | Cc1c(F)cccc1S(=O)(=O)Nc1ccc(F)c(Nc2ncnc3ccc(-n4cnc5c(C#N)cccc54)nc23)c1F [Example 329] | – |
| < 500 | Cc1c(F)cccc1S(=O)(=O)Nc1ccc(F)c(Nc2ncnc3ccc(-n4ccc(C(=O)N(C)Cc5ccncc5)n4)nc23)c1F [Example 334] | – |
| < 500 | Cc1c(F)cccc1S(=O)(=O)Nc1ccc(F)c(Nc2ncnc3ccc(-n4cnc(CCC#N)c4)nc23)c1F [Example 347] | – |
| < 500 | Nc1nccc2c1ncn2-c1ccc2ncnc(Nc3c(F)ccc(NS(=O)(=O)c4cccc(Cl)c4Cl)c3F)c2n1 [Example 348] | – |
| < 500 | Cc1c(F)cccc1S(=O)(=O)Nc1ccc(F)c(Nc2ncnc3ccc(-n4cnc5c(NCCO)cccc54)nc23)c1F [Example 350] | – |
| < 500 | Cc1c(F)cccc1S(=O)(=O)Nc1ccc(F)c(Nc2ncnc3ccc(-n4cnc5c(N(CCO)CCO)cccc54)nc23)c1F [Example 351] | – |

Continued, molecule first:

| SMILES | IC50 (HCT116 cells, class symbol) [nM] | also measured |
| --- | --- | --- |
| O=S(=O)(Nc1ccc(F)c(Nc2ncnc3ccc(-n4cc(CO)c5ccccc54)nc23)c1F)c1ccccc1Cl [Ex 88] | – | HCT116 pERK Ymin % (HCT116 cells, Ymin in brackets): −6%; IC50 [1]: 1000 to 10000 nM |
| O=S(=O)(Nc1ccc(F)c(Nc2ncnc3ccc(-n4cnc5c(CN6CCC6)cccc54)nc23)c1F)c1ccccc1Cl [Ex 218] | – | HCT116 pERK Ymin % (HCT116 cells, Ymin in brackets): −6%; IC50 [1]: 500 to 1000 nM |
| O=S(=O)(Nc1ccc(F)c(Nc2ncnc3ccc(-n4cnc5c(CN6CCOCC6)cccc54)nc23)c1F)c1ccccc1Cl [Ex 220] | – | HCT116 pERK Ymin % (HCT116 cells, Ymin in brackets): −1.7%; IC50 [1]: 500 to 1000 nM |
| CCN(C)Cc1cccc2c1ncn2-c1ccc2ncnc(Nc3c(F)ccc(NS(=O)(=O)c4ccccc4Cl)c3F)c2n1 [Ex 221] | – | HCT116 pERK Ymin % (HCT116 cells, Ymin in brackets): −5%; IC50 [1]: 500 to 1000 nM |
| O=S(=O)(Nc1ccc(F)c(Nc2ncnc3ccc(-n4cnc5c(CN6CCCCC6)cccc54)nc23)c1F)c1ccccc1Cl [Ex 228] | – | HCT116 pERK Ymin % (HCT116 cells, Ymin in brackets): 2.0%; IC50 [1]: 500 to 1000 nM |
| O=S(=O)(Nc1ccc(F)c(Nc2ncnc3ccc(-n4cnc5c(CN6CCNCC6)cccc54)nc23)c1F)c1ccccc1Cl [Ex 230] | – | HCT116 pERK Ymin % (HCT116 cells, Ymin in brackets): −3%; IC50 [1]: 1000 to 10000 nM |
| O=S(=O)(Nc1ccc(F)c(Nc2ncnc3ccc(-n4cc(S(=O)(=O)N5CCN(c6ccccn6)CC5)c5ccccc54)nc23)c1F)c1cccc(Cl)c1Cl [Ex 377] | 500 to 1000 | – |
| O=S(=O)(Nc1ccc(F)c(Nc2ncnc3ccc(-n4cc(S(=O)(=O)N5CCN(CCOCCO)CC5)c5ccccc54)nc23)c1F)c1cccc(Cl)c1Cl [Ex 378] | < 500 | – |
| O=S(=O)(Nc1ccc(F)c(Nc2ncnc3ccc(-n4cc(S(=O)(=O)N5CCN(C6CCCCC6)CC5)c5ccccc54)nc23)c1F)c1cccc(Cl)c1Cl [Ex 380] | 1000 to 10000 | – |
| CN(C)C1CCN(S(=O)(=O)c2cn(-c3ccc4ncnc(Nc5c(F)ccc(NS(=O)(=O)c6cccc(Cl)c6Cl)c5F)c4n3)c3ccccc23)CC1 [Ex 387] | < 500 | – |
| CCN1CCN(S(=O)(=O)c2cn(-c3ccc4ncnc(Nc5c(F)ccc(NS(=O)(=O)c6cccc(Cl)c6Cl)c5F)c4n3)c3ccccc23)CC1 [Ex 388] | < 500 | – |
| O=S(=O)(Nc1ccc(F)c(Nc2ncnc3ccc(-n4cc(S(=O)(=O)N5CCN(CCO)CC5)c5ccccc54)nc23)c1F)c1cccc(Cl)c1Cl [Ex 389] | < 500 | – |
| CN1CCCN(S(=O)(=O)c2cn(-c3ccc4ncnc(Nc5c(F)ccc(NS(=O)(=O)c6cccc(Cl)c6Cl)c5F)c4n3)c3ccccc23)CC1 [Ex 436] | < 500 | – |
| O=S(=O)(CC1CCCO1)c1cn(-c2ccc3ncnc(Nc4c(F)ccc(NS(=O)(=O)c5cccc(Cl)c5Cl)c4F)c3n2)c2ccccc12 (stereo not shown) [Ex 441] | 500 to 1000 | – |
| O=S(=O)(CC1CCOCC1)c1cn(-c2ccc3ncnc(Nc4c(F)ccc(NS(=O)(=O)c5cccc(Cl)c5Cl)c4F)c3n2)c2ccccc12 [Ex 442] | < 500 | – |
| O=S(=O)(Nc1ccc(F)c(Nc2ncnc3ccc(-n4cc(S(=O)(=O)N5CC6COCC6C5)c5ccccc54)nc23)c1F)c1cccc(Cl)c1Cl (stereo not shown) [Ex 451] | < 500 | – |
| O=S(=O)(Nc1ccc(F)c(Nc2ncnc3ccc(-n4cc(S(=O)(=O)N5CC(O)C5)c5ccccc54)nc23)c1F)c1cccc(Cl)c1Cl [Ex 455] | < 500 | – |
| CC1(O)CCN(S(=O)(=O)c2cn(-c3ccc4ncnc(Nc5c(F)ccc(NS(=O)(=O)c6cccc(Cl)c6Cl)c5F)c4n3)c3ccccc23)CC1 [Ex 458] | < 500 | – |
| C[C@@H]1CN(C)C[C@H](C)N1S(=O)(=O)c1cn(-c2ccc3ncnc(Nc4c(F)ccc(NS(=O)(=O)c5cccc(Cl)c5Cl)c4F)c3n2)c2ccccc12 [Ex 459] | < 500 | – |
| O=S(=O)(Nc1ccc(F)c(Nc2ncnc3ccc(-n4cnc5c4CCCC5)nc23)c1F)c1cccc(Cl)c1Cl [Ex 463] | 500 to 1000 | – |
| O=S(=O)(Nc1ccc(F)c(Nc2ncnc3ccc(-n4cnc5c(CN6CC(F)C6)cccc54)nc23)c1F)c1ccccc1Cl [Example 227] | – | HCT116 pERK Ymin % (HCT116 cells, Ymin in brackets): −1.9%; IC50 [1]: 500 to 1000 nM |
| CC(c1cccc2c1ncn2-c1ccc2ncnc(Nc3c(F)ccc(NS(=O)(=O)c4ccccc4Cl)c3F)c2n1)N1CCOCC1 (stereo not shown) [Example 237] | – | HCT116 pERK Ymin % (HCT116 cells, Ymin in brackets): 2.8%; IC50 [1]: 500 to 1000 nM |
| Cc1c(Cl)cccc1S(=O)(=O)Nc1cccc(Nc2ncnc3ccc(-n4nc(C(=O)N5CCOCC5)c5ccccc54)nc23)c1F [Example 241] | – | IC50 (HCT116 cells, Table 5): 1000 to 10000 nM; HCT116 pERK Ymin % (lowest value of the curve, HCT116, Table 5): −0.9% |
| CCCNc1cccc2c1ncn2-c1ccc2ncnc(Nc3c(F)ccc(NS(=O)(=O)c4cccc(Cl)c4Cl)c3F)c2n1 [Example 242] | – | HCT116 pERK Ymin % (HCT116 cells, Ymin in brackets): −7.4%; IC50 [1]: 1000 to 10000 nM |
| Cc1c(F)cccc1S(=O)(=O)Nc1ccc(F)c(Nc2ncnc3ccc(-n4ncc5c4CN(CCO)CC5)nc23)c1F [Example 339] | < 500 | – |
| Cc1c(F)cccc1S(=O)(=O)Nc1ccc(F)c(Nc2ncnc3ccc(-n4cc5c(n4)CCCN5CCO)nc23)c1F [Example 340] | < 500 | – |
| Cc1c(F)cccc1S(=O)(=O)Nc1ccc(F)c(Nc2ncnc3ccc(-n4cc5c(n4)CCCN5C)nc23)c1F [Example 356] | < 500 | – |
